Several values for one entry are separate records, joined by “and”; a condition that tells them apart may be missing. Equal entries are not always repeated. Where a SMILES comes first, the peptide text is derived from it. The star is where a group is joined. X1 = NC(=O)CCOCCOCCOCCOCCOCCOCCOCCOCCOCCOCCOCCOCCOCCOCCOCCOCCOCCOCCOCCOCCOCCOCCOCCOCCOCCOCCOCCOCCN*
Columns and labels:
[1] = test system: eosinophil recruitment into the lung airspaces; assay: Triple antigen (DRA) allergic mouse asthma model; type: in vivo
Procedure: Treatment of mice with CCR3 R3-2-1 peptide nanoparticles, scrambled R3-2-3 peptide nanoparticles or vehicle controls was administered i.v. by retro-orbital injection starting on day 11, one day before intranasal DRA allergen challenges on days 12-14 to assess its effect on inhibiting the recruitment of eosinophils into the lung airspaces and airways. Blood, bronchoalveolar lavage (BAL) fluid and lung tissue were harvested on day 15.
In the triple antigen driven allergic mouse model, mice are sensitized and airway-challenged with a combination of aeroallergens including Dust mite, Ragweed and Aspergillus sp. (DRA; Goplen, et al. (2009) J. Allergy Clin. Immunol. 123:925-932). This model recapitulates many of the pathologic features of human asthma, including eosinophil recruitment into the lung and airspaces, eosinophil degranulation, increased expression of Th2 cytokines, airway hyperreactivity (AHR), and airway remodeling (goblet cell metaplasia and mucus overproduction), and airway smooth muscle hyperplasia and subepithelial fibrosis. Using this model, the effectiveness of R3-2-1 in blocking allergen-induced eosinophil recruitment into the airways and development of airway pathologies in mice was evaluated. It was determined whether systemic (i.v.) administration of R3-2-1 nanoparticles has the capacity to inhibit eotaxin-mediated eosinophil recruitment into the airways. Mice subjected to the triple antigen (DRA) protocol were treated with R3-2-1, scrambled peptide (R3-2-3) and vehicle controls via i.v. administration following antigen sensitization, 24 hours prior to the first allergen challenge on Day 11 of the protocol (FIG. 7), and for i.v. routes, repeated before each subsequent allergen challenge.

CCR3 [2] = molecular target: T1, CCR3 (Homo sapiens, UniProt P51677); assay: NMR (13C HSQC) evaluation of binding to CCR3 membrane preparations; parameters: expressed in transfected cells; host or cells: 4DE4 mouse pre-B cell lymphoma line; details: 10 μM R321, 1 μM CCL11, CCR3 membrane preps 0.25 mg/ml
T1 sequence (P51677 1-355): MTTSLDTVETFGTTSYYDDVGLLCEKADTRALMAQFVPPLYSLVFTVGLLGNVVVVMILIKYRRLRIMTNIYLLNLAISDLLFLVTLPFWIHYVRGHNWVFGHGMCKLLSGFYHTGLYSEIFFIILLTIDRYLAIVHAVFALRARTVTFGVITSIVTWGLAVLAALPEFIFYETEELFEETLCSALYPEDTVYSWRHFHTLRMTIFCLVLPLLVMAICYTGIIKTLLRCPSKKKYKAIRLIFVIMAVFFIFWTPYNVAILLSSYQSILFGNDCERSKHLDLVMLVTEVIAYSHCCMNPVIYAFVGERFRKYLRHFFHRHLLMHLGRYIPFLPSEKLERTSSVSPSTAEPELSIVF
Procedure: FIG. 6A to FIG. 6E show NMR evaluation of the binding of R3-2-1 and CCL11/eotaxin-1 to CCR3 membrane preparations. ^13C HSQC spectra of ^13C-reductively methylated CCR3 membrane preps (0.25 mg/ml) were recorded with 1 μM CCL11 and 10 μM R321. […] Black arrows indicate the differences in chemical shifts.
Ligand binding to GPCR induces conformational transitions in the receptor that activate G-proteins and β-arrestin recruitment. […] Because R3-2-1 is an analog of the second transmembrane helix of CCR3, it is expected that R3-2-1 competes with the native helix 2 for binding to helices 1 and 3. Binding to helix 3 may disrupt the structure and orientation of the DRY motif in intracellular loop 2, inhibiting G-proteins.

CCR3 [3] = molecular target: T1, CCR3; assay: Chemotaxis assay (Transwell), AML14.3D10-CCR3 cells; type: cell-based; parameters: host or cells: AML14.3D10-CCR3 (eosinophilic myelocytic cell line, kept under G418); details: for IC90: 4 hours
Procedure: AML14.3D10-CCR3 (ATCC, Manassas, Va.; Daugherty, et al. (1996) J. Exp. Med. 183:2349-2354) were maintained in RPMI-1640 supplemented with 10% FBS, 1.5 g/L sodium bicarbonate, 4.5 g/L glucose, 2 mM L-glutamine, 10 mM HEPES, 1 mM sodium pyruvate, 50 μM β-mercaptoethanol, and 2 mg/ml G418 in a humidified incubator with 5% CO2 at 37° C.
Cell migration was determined using a 96-well […]® system (Corning, Tewksbury, Mass.). […] The two chambers were separated by a polycarbonate filter with 5 μm pores. For AML14.3D10-CCR3 cells, 2×10^5 cells/well were resuspended in RPMI-1640+0.1% BSA and allowed to migrate for 4 hours at 37° C. For blood eosinophils, 1×10^5 cells/well were resuspended in X-VIVO 10+0.5% BSA and allowed to migrate for 3 hours at 37° C. Migrated cells were counted using a Beckman QUANTA SC flow cytometer. All experiments were performed in duplicate. Checkerboard analysis was done to distinguish chemotaxis from chemokinesis.
Primary eosinophils and the stable CCR3+eosinophilic myelocytic cell line, AML14.3D10-CCR3 (Daugherty, et al. (1996) J. Exp. Med. 183:2349-2354) undergo CCR3-mediated chemotaxis induced by multiple chemokines including eotaxin/CCL11, RANTES/CCL5, MCP-4/CCL13, and MEC/CCL28 (Daugherty, et al. (1996) J. Exp. Med. 183:2349-2354; Pan, et al. (2000) J. Immunol. 165:2943-2949).

CCR3 [4] = molecular target: T1, CCR3; assay: CCR3 degradation in cycloheximide-treated AML14.3D10-CCR3 cells, immunoblot; type: cell-based; parameters: host or cells: AML14.3D10-CCR3 (eosinophilic myelocytic cell line, kept under G418); details: 10 μM, 8 nM eotaxin or RANTES for 3 hours
Procedure: AML14.3D10-CCR3 cells were resuspended in RPMI-1640+0.1% BSA. Aliquots of 1×10^6 cells were pretreated with 10 μM cycloheximide for 1 hour at 37° C. Some cells were concurrently pretreated with 10 μM R3-2-1, 10 μM MG132, or both for 30 minutes. Pretreated cells were stimulated with 8 nM eotaxin or RANTES for 3 hours to induce receptor degradation. An aliquot of untreated cells were reserved at the start of the experiment to establish baseline CCR3 expression. All cells were then lysed in RIPA buffer and immunoblotted for CCR3 with a polyclonal rabbit anti-CCR3 antibody (Abcam) followed by goat anti-rabbit IgG-HRP secondary antibody (Santa Cruz).

Structure (SMILES): CC[C@H](C)[C@H](NC(=O)[C@H](Cc1c[nH]c2ccccc12)NC(=O)[C@H](Cc1ccccc1)NC(=O)[C@@H]1CCCN1C(=O)[C@H](CC(C)C)NC(=O)[C@@H](NC(=O)[C@@H](NC(=O)[C@H](CC(C)C)NC(=O)[C@H](Cc1ccccc1)NC(=O)[C@H](CC(C)C)NC(=O)[C@@H](N)CC(C)C)C(C)C)[C@@H](C)O)C(=O)N[C@@H](Cc1c[nH]cn1)C(=O)N[C@@H](Cc1ccc(O)cc1)C(=O)N[C@H](C(=O)N[C@@H](CCCNC(=N)N)C(=O)NCC(=O)N[C@@H](Cc1c[nH]cn1)C(=O)N[C@@H](CC(N)=O)C(=O)N[C@@H](Cc1c[nH]c2ccccc12)C(=O)N[C@H](C(=O)N[C@@H](Cc1ccccc1)C(=O)NCC(=O)N[C@@H](Cc1c[nH]cn1)C(=O)N[C@@H](CC(=O)O)C(=O)N[C@@H](CC(=O)O)C(=O)N[C@@H](CC(=O)O)C(=O)NCCOCCOCCOCCOCCOCCOCCOCCOCCOCCOCCOCCOCCOCCOCCOCCOCCOCCOCCOCCOCCOCCOCCOCCOCCOCCOCCOCCOCCC(N)=O)C(C)C)C(C)C [Peptide R3-2-1] (H-LLFLVTLPFWIHYVRGHNWVFGHDDD-X1; N-terminus assumed)
- % Inhibition of eosinophil recruitment (BAL fluid) ([1]; 3 mg/kg i.v.): 19.54 ± 14.81%
- % Inhibition of eosinophil recruitment (BAL fluid) ([1]; 6 mg/kg i.v.): 44.24 ± 9.33%
- % Inhibition of eosinophil recruitment (BAL fluid) ([1]; 9 mg/kg i.v.): 53.03 ± 10.82%
- % Inhibition of eosinophil recruitment (BAL fluid) ([1]; 12 mg/kg i.v., compared to vehicle and R3-2-3 controls): 69.3% and 69.33 ± 4.20%
- IC50 for inhibition of total number of eosinophils recruited into the lung airspaces ([1]; i.v.): 8.16 mg/kg
- total number of eosinophils recruited into the lung airspaces ([1]; i.v., BAL fluid): significantly inhibits
- binding to CCR3 by NMR chemical shift changes (CCR3 [2]): chemical shift changes indicative of binding
- tolerance to inhibition of CCL11-induced chemotaxis (CCR3 [3]; 1 μM for 24, 48 or 72 hour, CCL11 12 nM): retains it full inhibitory activity
- chemotactic (agonist) activity by itself (CCR3 [3]; AML14.3D10-CCR3 cells, no chemokine): not chemotactic
- inhibition of CCR3-mediated chemotaxis induced by Eotaxin/CCL11, RANTES/CCL5 and MEC/CCL28 (CCR3 [3]; AML14.3D10-CCR3 cells, R3-2-1 0.4, 2 or 10 μM): inhibits chemotaxis induced by Eotaxin/CCL11, RANTES/CCL5 and MEC/CCL28 in a dose-dependent fashion
- IC90 (CCR3 [3]; AML14.3D10-CCR3 cells, chemotaxis to CCL11/Eotaxin-1 (12 nM)): 1750 ± 200 nM
- IC90 (CCR3 [3]; AML14.3D10-CCR3 cells, chemotaxis to CCL24/Eotaxin-2 (20 nM)): 890 ± 120 nM
- IC90 (CCR3 [3]; AML14.3D10-CCR3 cells, chemotaxis to CCL26/Eotaxin-3 (100 nM)): 780 ± 100 nM
- CCR3 degradation induced by eotaxin and RANTES (CCR3 [4]): enhanced CCR3 degradation induced by eotaxin and RANTES

— patent US11167012B2, “Peptide inhibition of CCR3-mediated diseases or conditions” (The Board of Trustees of the University of Illinois, priority 2015, dated 2021)
